Test results: patent publication US10463747B2, “Method of developing a vaccine using peptide-poly IC complexes” (H. Lee Moffitt Cancer Center and Research Institute, Inc., priority 2011, dated 2019)
Where no end group is shown, it is not given here.

Legend:
[1] = tested on: CD8 T cell responses of peptide epitope Trp1455/9M (TAPDNLGYM); test: Tetramer analysis of CD8 T cell responses after i.v. prime-boost vaccination with modified Trp1 peptide mixed with Poly-IC; type: in vivo, mice; conditions: for immunogenicity of peptide epitope (CD8 T cell response, tetramer analysis): i.v. prime-boost 2 weeks apart, blood 7 days after boost; for immunogenicity of peptide epitope compared with hepta-arginine (R)7 tail: three-arginine tail, FIG. 2
Protocol: CD8 T cell responses of peptide epitope Trp1455/9M (TAPDNLGYM) (SEQ ID NO:2) containing 3 types of tails with charged amino acids (R, K or E) and a short linker (MFV) (SEQ ID NO:3) were measured by tetramer analysis after i.v. prime-boost (2 weeks apart) vaccination using 120 μg peptide mixed with 50 μg Poly-IC. These sequences correspond to (R)7-MFV-TAPDNLGYM (SEQ ID NO:4); (K)7-MFV-TAPDNLGYM (SEQ ID NO:5); and (E)7-MFV-TAPDNLGYM (SEQ ID NO:6) respectively. Immune responses in 3 individual mice measured 7 days after the boost in blood samples. Numbers below the rectangular gates correspond to the % tetramer positive (antigen-specific) cells of the total CD8 T cell population.
The sequence for the three-arginine tail is (R)3-MFVTAPDNLGYM (SEQ ID NO:7).
CD8 T cell responses of peptide epitope Trp1455/9M (TAPDNLGYM) (SEQ ID NO:2) containing 2 types of hydrophobic tails (LMFVMFV-TAPDNLGYM (SEQ ID NO:10) and (Pam)2KMFV-TAPDNLGYM (SEQ ID NO:11)) at the amino terminus end were measured by tetramer analysis after i.v. prime-boost (2 weeks apart) vaccination using peptide mixed with 50 μg Poly-IC. Immune responses in 3 individual mice measured 7 days after the boost in blood samples. Numbers below the rectangular gates correspond to the % tetramer positive (antigen-specific) cells of the total CD8 T cell population.
(§1) Comparison of CD8 T cell responses of peptide epitope (pam)2Trp455/9M [(Pam)2KMFV-TAPDNLGYM] (SEQ ID NO:11) injected together with 50 μg Poly-IC (top panels) or 3.5 hours after the Poly-IC (bottom panels). Immune response in 3 individual mice measured 7 days after an identical boost (12 days apart) in blood samples. Numbers below the rectangular gates correspond to the % tetramer positive (antigen-specific) cells of the total CD8 T cell population.

[2] = tested on: CD8 T cell responses of peptide epitope HPV16-E749 (RAHYNIVTF); test: Tetramer analysis of CD8 T cell responses after i.v. prime-boost vaccination with HPV16-E7 peptide mixed with Poly-IC; type: in vivo, mice; conditions: for immunogenicity of peptide epitope (CD8 T cell response, tetramer analysis): i.v. prime-boost 2 weeks apart, 30 μg peptide mixed with 50 μg Poly-IC, blood 7 days after boost
Protocol: CD8 T cell responses of peptide epitope HPV16-E749 (RAHYNIVTF) (SEQ ID NO:8) and HPV16-E749/1A (AAHYNIVTF) (SEQ ID NO:9) measured by tetramer analysis after i.v. prime-boost (2 weeks apart) vaccination using 30 μg peptide mixed with 50 μg Poly-IC. Immune responses in 3 individual mice measured 7 days after the boost in blood samples. Numbers below the oval gates correspond to the % tetramer positive (antigen-specific) cells of the total CD8 T cell population.
as §1, with “epitope HPV16-E749 (RAHYNIVTF)” for “epitope (pam)2Trp455/9M [(Pam)2KMFV-TAPDNLGYM]”, “ID NO:8)” for “ID NO:11)”, “or 5” for “or 3.5”, “Immune responses” for “Immune response”, “the oval” for “the rectangular”

MHC molecule = biological target: T1, MHC molecule (Mus musculus, UniProt P01899); conditions: arginine to alanine substitution at position 1; cited from earlier work
T1 sequence (P01899 25-362): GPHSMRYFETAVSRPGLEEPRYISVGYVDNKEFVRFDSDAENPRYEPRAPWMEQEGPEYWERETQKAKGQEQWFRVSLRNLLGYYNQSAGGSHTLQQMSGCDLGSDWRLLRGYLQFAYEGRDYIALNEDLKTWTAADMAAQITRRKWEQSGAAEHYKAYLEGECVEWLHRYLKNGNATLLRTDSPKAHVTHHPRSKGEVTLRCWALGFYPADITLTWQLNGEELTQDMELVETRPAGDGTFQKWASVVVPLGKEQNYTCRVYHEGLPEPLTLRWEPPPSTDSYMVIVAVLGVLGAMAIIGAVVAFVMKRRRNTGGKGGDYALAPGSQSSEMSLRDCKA
T1 sequence (P01887 21-119 partner): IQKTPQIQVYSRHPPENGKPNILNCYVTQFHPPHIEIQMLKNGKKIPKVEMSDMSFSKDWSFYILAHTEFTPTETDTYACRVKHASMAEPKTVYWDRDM

[3] = tested on: antigen-specific CD8 T lymphocytes; test: Immunogenicity of modified peptides with immune adjuvants (general observations, adjuvant type and timing); conditions: in vivo
Protocol: Arginine-containing peptides and the hydrophobic peptides are highly immunogenic when administered together with Poly-IC because they are able to form complexes. This is supported by the observations that if the Poly-IC is injected intravenously (i.v) 3.5 to 5 hr before the peptide (also i.v.), then the immune responses are dramatically lower as compared to circumstances when both peptide and Poly-IC are administered together (FIGS. 7 and 8).
The inventors are developing assays that measure the formation of these complexes. The data has been observed with Poly-IC, which is both a TLR3 agonist and ligand for RIG-1 like receptors, or cytoplasmic helicases.
There are examples of antigens (proteins or peptides) that are conjugated to antibodies specific for cell surface molecules expressed on antigen-presenting cells in order to specifically target the antigens to these cells to generate immune responses. […] This is likely due to the antibodies, while targeting the antigen to the appropriate antigen-presenting cell, are not sufficiently stimulatory to activate the cell to become optimal to stimulate the T cell responses. In addition, the ODN-CpG-peptide complexes are not captured as efficiently due to their relatively small size, as compared to the peptide-poly-IC complexes, by the scavenger receptors on the antigen-presenting cells. […]

[4] = 50 μg Poly-IC, 7 days after identical boost (12 days apart), blood
[5] = hydrophobic tail at amino terminus, peptide mixed with 50 μg Poly-IC

(Pam)2KMFV-TAPDNLGYM (KMFVTAPDNLGYM; not fully specified (residue 1); printed as (Pam)2KMFV-TAPDNLGYM)
immune response, peptide injected together with Poly-IC versus 3.5 hours after the Poly-IC [1, 4]: stronger immune responses | immunogenicity of peptide epitope (CD8 T cell response, tetramer analysis) [1, 5]: increase the immunogenicity

(R)3-MFVTAPDNLGYM (RRRMFVTAPDNLGYM; 3 arginine tail epitope Trp1 455/9m)
immunogenicity of peptide epitope compared with hepta-arginine (R)7 tail [1]: increases immunogenicity of a peptide epitope similar to the results obtained from a hepta-arginine (R)7 tail | immunogenicity of peptide epitope compared with hepta-arginine (R)7 tail ([1]; listed as (R)3): function as well as peptides with seven arginines (R)7

(R)7-MFV-TAPDNLGYM (RRRRRRRMFVTAPDNLGYM; 7 arginine tail epitope Trp1 455/9m)
immunogenicity of peptide epitope (CD8 T cell response, tetramer analysis) ([1]; charged amino acid tail + MFV linker, 120 μg peptide mixed with 50 μg Poly-IC): increases the immunogenicity | immunogenicity of peptide epitope (CD8 T cell response, tetramer analysis) ([1]; charged amino acid tail + MFV linker, 120 μg peptide mixed with 50 μg Poly-IC, listed as R7): function as good immunogens

AAHYNIVTF (peptide epitope hpv16-e7 49/1a) [HPV16-E749/1A]
immunogenicity of peptide epitope (CD8 T cell response, tetramer analysis) [2]: reduces its immunogenicity | immunogenicity of peptide epitope (CD8 T cell response, tetramer analysis) ([2]; listed as AAHYNIVTF): reduced dramatically the immunogenicity | capacity of the peptide to bind to the MHC molecule and be recognized by T cells (MHC molecule): does not interfere with the capacity of the peptide to bind to the MHC molecule and be recognized by T cells

LMFVMFV-TAPDNLGYM (LMFVMFVTAPDNLGYM; peptide epitope Trp1 455/9m with hydrophobic tail)
immunogenicity of peptide epitope (CD8 T cell response, tetramer analysis) [1, 5]: increase the immunogenicity

RAHYNIVTF (peptide epitope hpv16-e7 49) [HPV16-E749]
immune response, peptide injected together with Poly-IC versus 5 hours after the Poly-IC [2, 4]: stronger immune responses | immunogenicity of peptide epitope (CD8 T cell response, tetramer analysis) [2]: more immunogenic than AAHYNIVTF

polyinosinic:polycytidylic acid [poly-IC]
effect on immune responses of injection prior to the injection of peptide-poly-IC complexes [3]: inhibition of the immune responses | generation of secondary (booster) immune responses by adjuvant [3]: very potent
